Values of other authors in patent publication US11273125B2, “Preparation of desiccated liposomes for use in compressible delivery systems” (SMARTEK INTERNATIONAL LLC, priority 2017, dated 2022).

Settings: poor bioavailability of the unformulated compound; route and species not given

COc1ccc2c(=O)cc(-c3ccccc3)oc2c1 [7-methoxyflavone]
bioavailability: approximately 5%
